In ChEMBL document CHEMBL5137024, “Discovery of novel coumarin-indole derivatives as tubulin polymerization inhibitors with potent anti-gastric cancer activities” (Eur J Med Chem, 2022):
Calls of active or inactive are those of the source. The rule behind the calls is not given here.

Experiments:
TE-1 = test: Antiproliferative activity against human TE-1 cells assessed as reduction in cell viability incubated for 48 hrs by MTT assay; assay type: functional, cell-based; conditions: TE-1, 48 h
DU-145 = test: Antiproliferative activity against human DU-145 cells assessed as reduction in cell viability incubated for 48 hrs by MTT assay; assay type: functional, cell-based; conditions: DU-145, 48 h
SH-SY5Y = test: Antiproliferative activity against human SH-SY5Y cells assessed as reduction in cell viability incubated for 48 hrs by MTT assay; assay type: functional, cell-based
A549 = test: Antiproliferative activity against human A549 cells assessed as reduction in cell viability incubated for 48 hrs by MTT assay; assay type: functional, cell-based; conditions: A549, 48 h
HGC-27 [1] = test: Antiproliferative activity against human HGC-27 cells assessed as reduction in cell viability at 15 to 30 nM by MTT assay; assay type: functional, cell-based; conditions: dose 15-30 nM, time 12-48 hrs, TDE = time-dependent effect
Tubulin (Homo sapiens) = Tubulin (Homo sapiens) (UniProt P68371+Q9H4B7+P0DPH7+P68366+Q13509+Q71U36+P04350+Q3ZCM7+P07437+P68363+Q9BQE3+Q6PEY2+Q13885+Q9BVA1+Q9BUF5); test: Disruption of microtubule network in human MGC-803 cells assessed as incomplete mitosis at 5 to 15 nM measured after 48 hrs by DAPI staining based fluorescence microscopic analysis; assay type: cell-based; conditions: dose 5-15 nM
[2] = molecular target: Tubulin beta (Homo sapiens) (UniProt P68371+Q9H4B7+Q13509+P04350+Q3ZCM7+P07437+Q13885+Q9BVA1+Q9BUF5+A6NNZ2); test: Binding affinity to beta-tubulin colchicine binding site in human MGC-803 cells assessed as decrease in beta-tubulin adduct band incubated for 2 hrs by EBI alkylate competition assay; assay type: cell-based; conditions: dose 0.075-0.75 µM, DDE = dose-dependent effect
MGC-803 [3] = test: Inhibition of p38 signalling pathway in human MGC-803 cells assessed as reduction in MKK3/6 phosphorylation at 5 to 15 nM incubated for 48 hrs; assay type: cell-based; conditions: dose 5-15 nM
HGC-27 [4] = test: Inhibition of p38 signalling pathway in human HGC-27 cells assessed as reduction in MKK3/6 phosphorylation at 10 to 30 nM incubated for 48 hrs; assay type: cell-based; conditions: dose 10-30 nM
MGC-803 [5] = test: Downregulation of ATF4 expression in human MGC-803 cells incubated for 48 hrs; assay type: functional, cell-based; conditions: dose 5-15 nM, DDE = dose-dependent effect
MGC-803 [6] = test: Downregulation of phosphorylated ATF-2 expression in human MGC-803 cells incubated for 48 hrs; assay type: functional, cell-based; conditions: dose 5-15 nM, DDE = dose-dependent effect
HGC-27 [7] = test: Downregulation of c-Myc expression in human HGC-27 cells incubated for 48 hrs; assay type: functional, cell-based; conditions: dose 10-30 nM, DDE = dose-dependent effect
HGC-27 [8] = test: Downregulation of phosphorylated ATF-2 expression in human HGC-27 cells incubated for 48 hrs; assay type: functional, cell-based; conditions: dose 10-30 nM, DDE = dose-dependent effect
HGC-27 [9] = test: Downregulation of phosphorylated Elk-1 expression in human HGC-27 cells incubated for 48 hrs; assay type: functional, cell-based; conditions: dose 10-30 nM, DDE = dose-dependent effect
[10] = Induction of mitochondria mediated intrinsic apoptosis in human MGC-803 cells assessed as late apoptotic cells at 10 nM measured after 48 hrs by flow cytometry analysis (Rvb= 98.2%); assay type: functional
[11] = Induction of mitochondria mediated intrinsic apoptosis in human HGC-27 cells assessed as early apoptotic cells at 10 nM measured after 48 hrs by flow cytometry analysis (Rvb= 6.4%); assay type: functional
[12] = Induction of mitochondria mediated intrinsic apoptosis in human HGC-27 cells assessed as late apoptotic cells at 20 nM measured after 48 hrs by flow cytometry analysis (reference value: 93.6%); assay type: functional
[13] = Induction of mitochondria mediated intrinsic apoptosis in human HGC-27 cells assessed as early apoptotic cells at 30 nM measured after 48 hrs by flow cytometry analysis (Rvb= 6.4%); assay type: functional
[14] = Induction of mitochondria mediated intrinsic apoptosis in human HGC-27 cells assessed as late apoptotic cells at 30 nM measured after 48 hrs by flow cytometry analysis (reference value: 93.6%); assay type: functional
HGC-27 [15] = test: Induction of apoptosis in human HGC-27 cells assessed as cell rounding at 10 to 30 nM incubated for 48 hrs by bright field imaging analysis; assay type: functional, cell-based; conditions: dose 10-30 nM
MGC-803 [16] = test: Induction of apoptosis in human MGC-803 cells assessed as nuclear concentration at 5 to 15 nM incubated for 48 hrs by DAPI staining based analysis; assay type: functional, cell-based; conditions: dose 5-15 nM
MGC-803 [17] = test: Induction of apoptosis in human MGC-803 cells assessed as increase in dead cells at 5 to 15 nM incubated for 48 hrs by calcein-AM dye/propidium iodide staining based analysis; assay type: functional, cell-based; conditions: dose 5-15 nM
MGC-803 [18] = test: Induction of apoptosis in human MGC-803 cells assessed as decrease in Bcl-2 level; assay type: functional, cell-based; conditions: dose 5-15 nM, DDE = dose-dependent effect
HGC-27 [19] = test: Induction of apoptosis in human HGC-27 cells assessed as decrease in Mcl-1 level; assay type: functional, cell-based; conditions: dose 10-30 nM, DDE = dose-dependent effect
MGC-803 [20] = test: Induction of apoptosis in human MGC-803 cells assessed as increase in cleavage caspase 3 level; assay type: functional, cell-based; conditions: dose 5-15 nM, DDE = dose-dependent effect
HGC-27 [21] = test: Induction of apoptosis in human HGC-27 cells assessed as increase in cleavage substrate PARP level; assay type: functional, cell-based; conditions: dose 10-30 nM, DDE = dose-dependent effect
HGC-27 [22] = test: Induction of apoptosis in human HGC-27 cells assessed as upregulation of cleavage caspase 8 level; assay type: functional, cell-based; conditions: dose 10-30 nM, DDE = dose-dependent effect
HGC-27 [23] = test: Antiproliferative activity against human HGC-27 cells assessed as inhibition of cell growth at 10 to 30 nM incubated for 60 hrs; assay type: functional, cell-based; conditions: dose 10-30 nM
MGC-803 [24] = test: Induction of cell cycle arrest in human MGC-803 cells assessed as accumulation of cells at G2/M phase at 15 nM incubated for 48 hrs by propidium iodide staining based flow cytometry analysis (reference value: 24%); assay type: functional
MGC-803 [25] = test: Downregulation of cyclin B1 expression in human MGC-803 cells at 5 to 15 nM incubated for 48 hrs; assay type: functional, cell-based; conditions: dose 5-15 nM
MGC-803 [26] = test: Downregulation of MMP-9 expression in human MGC-803 cells incubated for 48 hrs; assay type: functional, cell-based; conditions: dose 5-15 nM, DDE = dose-dependent effect
HGC-27 [27] = test: Downregulation of MMP-9 expression in human HGC-27 cells incubated for 48 hrs; assay type: functional, cell-based; conditions: dose 10-30 nM, DDE = dose-dependent effect
MGC-803 [28] = test: Antitumor activity against human MGC-803 cells xenografted BALB/c nude mouse assessed as tumor growth inhibition at 30 mg/kg, ip administered once daily for 21 days; assay type: functional; conditions: MGC-803, 504 h, time 21 day, read-out: TGI
[29] = Toxicity in BALB/c nude mouse xenografted with human MGC-803 cells assessed as pathological changes in heart at 15 to 30 mg/kg, ip administered once daily for 21 days by Hematoxyin-eosin staining based analysis; assay type: organism-based; conditions: in vivo, 504 h, dose 15-30 mg/kg, time 21 day
[30] = Toxicity in BALB/c nude mouse xenografted with human MGC-803 cells assessed as pathological changes in liver at 15 to 30 mg/kg, ip administered once daily for 21 days by Hematoxyin-eosin staining based analysis; assay type: organism-based; conditions: in vivo, 504 h, dose 15-30 mg/kg, time 21 day
Mus musculus [31] = test: Downregulation of ERK1/2 phosphorylation in tumor tissue of BALB/c nude mouse xenografted with human MGC-803 cells at 15 to 30 mg/kg, ip administered once daily for 21 days by Western blotting analysis; assay type: functional, organism-based; conditions: dose 15-30 mg/kg, time 21.0 day
Mus musculus [32] = test: Downregulation of Ki67 expression in tumor tissue of BALB/c nude mouse xenografted with human MGC-803 cells at 15 to 30 mg/kg, ip administered once daily for 21 days by immunohistochemistry analysis; assay type: functional, organism-based; conditions: dose 15-30 mg/kg, time 21.0 day

- IC50 (DU-145): 74 nM
- IC50 (SH-SY5Y): 19.4 nM
- IC50 (A549): 59.3 nM
- Activity (Tubulin (Homo sapiens)): Active
- Activity [2]: Dde
Structure (SMILES): CN(c1ccc2c(ccn2C)c1)c1cc(=O)oc2ccccc12
- IC50 (TE-1): 489 nM
- Activity (HGC-27 [1]): Tde
- inhibition (MGC-803 [3]): Active
- inhibition (HGC-27 [4]): Active
- Activity (MGC-803 [5]): Dde
- Activity (MGC-803 [6]): Dde
- Activity (HGC-27 [7]): Dde
- Activity (HGC-27 [8]): Dde
- Activity (HGC-27 [9]): Dde
- Activity [10]: 92.5%
- Activity [11]: 8.3%
- Activity [12]: 78.3%
- Activity [13]: 25.5%
- Activity [14]: 74.4%
- Activity (HGC-27 [15]): Active
- Activity (MGC-803 [16]): Active
- Activity (MGC-803 [17]): Active
- Activity (MGC-803 [18]): Dde
- Activity (HGC-27 [19]): Dde
- Activity (MGC-803 [20]): Dde
- Activity (HGC-27 [21]): Dde
- Activity (HGC-27 [22]): Dde
- inhibition (HGC-27 [23]): Active
- Activity (MGC-803 [24]): 53%
- Activity (MGC-803 [25]): Active
- Activity (MGC-803 [26]): Dde
- Activity (HGC-27 [27]): Dde
- inhibition in vivo at 30 mg/kg (MGC-803 [28]): 80%
- Activity [29]: Non-Toxic
- Activity [30]: Non-Toxic
- Activity (Mus musculus [31]): Active
- Activity (Mus musculus [32]): Active
